Consider one compound from patent US20210309961A1, “METHOD OF THREE-DIMENSIONAL MICROORGANISMS BIOFILMS FABRICATION” (VIVAX BIO, LLC, priority 2020, published 2021).

The assay deals with E. coli ATCC 43890. In words: Survivability of E. coli ATCC 43890 in presence of gadobutrol (cfu count by plating decimal dilutions). The class given is cell-based, Escherichia coli. On the procedure:
A. (1) E. coli culture ATCC 43890 grown on LB broth during the night, (2) bacteria culture grown on LB broth and incubated with 0,2 M of gadobutrol in magnetic bioprinter for 24 hours, and (3) bacteria culture cultivated in paramagnetic substrate containing 0,2 M of gadobutrol in magnetic bioprinter for 24 hours; bacteria were sown in decimal dilution; diagram is showing concentrations calculated in three independent experiments.
The E. coli ATCC 43890 (cultured in different conditions) concentrations were estimated for analysis of survivability of bacteria in presence of gadobutrol. Primary culture has shown concentrations of 2.3×10^9, 2.1×10^9 and 1.9×10^8 cfu/ml for fresh night culture grown in LB broth during the night (1), for culture grown in LB broth during the night and then incubated with 0.2M gadobutrol in the bioprinter for next 24 hours (2), and culture grown under magnetic levitation in the paramagnetic nutrient medium (3) respectively (FIG. 4A). […] Moreover, the results have shown that the bacteria proliferated in the paramagnetic culture medium, that was observed due to the increase in concentration during cultivation: the initial bacteria (diluted in fresh paramagnetic medium) concentration was 2.3×10^7 cfu/ml ( 1/100 from the fresh night culture) and final concentration was 1.9×10^8 cfu/ml.

Each structure is given as a SMILES string.

As for `O=C([O-])CN1CCN(CC(=O)[O-])CCN(C(CO)C(O)CO)CCN(CC(=O)[O-])CC1.[Gd+3]` (stereo not drawn) [gadobutrol, [10-[2,3-dihydroxy-1-(hydroxymethyl)propyl]-1,4,7,10-tetraazacyclododecane-1,4,7-triaceto(3-)-N^1,N^4,N^7,N^10,O^1,O^4,O^7]gadolinium], under “0.2M gadobutrol”, the “survivability of bacteria after incubation” value was “bacteria saved their survivability”. Further, the bacteria concentration is listed as 2.1×10^9 cfu/ml (culture grown in LB broth during the night, then incubated with 0.2M gadobutrol in the bioprinter for next 24 hours) and 1.9×10^8 cfu/ml (culture grown under magnetic levitation in paramagnetic nutrient medium (0.2 M gadobutrol) for 24 hours, initial concentration 2.3×10^7 cfu/ml).
